Data published in PubChem BioAssay (NCI).
Several values for one entry are separate records, joined by “and”; a condition that tells them apart may be missing. Equal entries are not always repeated.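 Tested at 5 concentrations; 48 h exposure; 96-well plates; endpoints linearly interpolated, else capped at highest concentration. Abbreviation: GI50, concentration required for 50% inhibition of growth. TGI marks complete inhibition of growth.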

Tests used:
Assay in all cases: NCI tumour cell line growth inhibition, 48 h
EKVX NSCLC = tested on: EKVX NSCLC
SF-268 CNS = tested on: SF-268 CNS
SK-OV-3 ovarian = tested on: SK-OV-3 ovarian
SK-MEL-28 melanoma = tested on: SK-MEL-28 melanoma
TK-10 renal = tested on: TK-10 renal
UACC-257 melanoma = tested on: UACC-257 melanoma
NCI-H522 lung = tested on: NCI-H522 lung
IGROV1 ovarian = tested on: IGROV1 ovarian
KM12 colon = tested on: KM12 colon
COLO 205 colon = tested on: COLO 205 colon

Structure (SMILES) | TGI (EKVX NSCLC) | TGI (SF-268 CNS) | TGI (SK-OV-3 ovarian) | TGI (SK-MEL-28 melanoma) | TGI (TK-10 renal) | TGI (UACC-257 melanoma) | TGI (NCI-H522 lung) | TGI (IGROV1 ovarian) | TGI (KM12 colon) | TGI (COLO 205 colon) | GI50 (EKVX NSCLC) | GI50 (SF-268 CNS) | GI50 (SK-OV-3 ovarian) | GI50 (SK-MEL-28 melanoma) | GI50 (TK-10 renal) | GI50 (UACC-257 melanoma) | GI50 (NCI-H522 lung) | GI50 (IGROV1 ovarian) | GI50 (KM12 colon) | GI50 (COLO 205 colon)
CC(=O)NC1=C(C)C(=O)c2c(nc3n2CCC3O)C1=N (stereo not given) | 37 µM | 22.3 µM | 97.1 µM | 31 µM | 85.4 µM | 13.2 µM | 19.6 µM | 39.3 µM | 34.3 µM | 33.4 µM | – | – | – | – | – | – | – | – | – | –
COC(=O)CNC(=O)[C@@H](OC)[C@@H]1Cc2cc3cc(OC4CC(OC5CC(O)C(O)C(C)O5)C(O)C(C)O4)c(C)c(O)c3c(O)c2C(=O)[C@H]1OC1CC(OC2CC(OC3CC(C)(O)C(O)C(C)O3)C(O)C(C)O2)C(O)C(C)O1 (stereo not given in full) | > 50 µM | > 50 µM | > 50 µM | 1.03 µM | > 50 µM | 1.58 µM | 0.372 µM | > 50 µM | > 50 µM | 1.18 µM | 0.219 µM | 0.196 µM | 0.444 µM | 0.11 µM | 0.402 µM | 0.146 µM | 0.0921 µM | 0.192 µM | 0.127 µM | 0.148 µM
COc1cc(Nc2nc(N[C@H]3CCCC[C@@H]3N)nc3cc[nH]c(=O)c23)cc(OC)c1 | 12.2 µM | 17.7 µM | 17.5 µM | 6.44 µM | 19.3 µM | 3.33 µM | 4.55 µM | – | 3.11 µM | 2.49 µM | 1.08 µM | 2.17 µM | 0.388 µM | 1.86 µM | 1.84 µM | 1.55 µM | 1.45 µM | – | 0.422 µM | 1.04 µM
CN(CCOc1ccc(C#N)cc1)CCOc1ccc(C#N)cc1 | > 100 µM | > 100 µM | > 100 µM | > 100 µM | > 100 µM | > 100 µM | > 100 µM | 24.7 µM | 66.2 µM | > 100 µM | 63.2 µM | > 100 µM | > 100 µM | > 100 µM | 28.7 µM | 28.9 µM | 4.98 µM | 1.66 µM | 16.6 µM | > 100 µM
Cn1ccnc1C(=O)/C=C/c1ccc(CC(=O)Nc2ccccc2)cc1 | > 25 µM | 13.9 µM | > 25 µM | 17.8 µM | 19.9 µM | 21.1 µM | 6.45 µM | 14.5 µM | 8.17 µM | 9.39 µM | 6.28 µM | 3.72 µM | 9.3 µM | 5.69 µM | 7.44 µM | 6.98 µM | 3.2 µM | 2.11 µM | 3.39 µM | 3.77 µM
CCC(CC)n1c(C)nc2c1C(=O)c1ccccc1C2=O | > 100 µM | > 100 µM | > 100 µM | > 100 µM | > 100 µM | 72.7 µM | > 100 µM | > 100 µM | > 100 µM | > 100 µM | – | – | – | – | – | – | – | – | – | –
CN(C)c1ccc2cc(-c3ccccc3F)c(N)nc2c1 | 26.7 µM | 19.8 µM | 12.2 µM | 19.6 µM | 16.2 µM | 18.3 µM | 5.87 µM | 24.4 µM | 14.9 µM | 6.35 µM | 6.57 µM | 3.89 µM | 2.52 µM | 2.57 µM | 3.83 µM | 6.12 µM | 1.35 µM | 2.81 µM | 0.89 µM | 1.38 µM
CC(C)C1CC(O)O[C@@H]([C@@H](C)[C@H]2CC(=O)[C@@H]3[C@@H]4[C@@H](O)[C@H](O)[C@H]5[C@@H](O)[C@H](O)CC[C@]5(C)[C@H]4CC[C@]23C)C1 (stereo not given in full) | > 100 µM | > 100 µM | > 100 µM | > 100 µM | > 100 µM | > 100 µM | > 100 µM | > 100 µM | > 100 µM | > 100 µM | – | – | – | – | – | – | – | – | – | –
CC1=C(O)C(=O)C2C(=O)C1C(C)C2c1ccc(Cl)cc1 (stereo not given) | > 100 µM | > 100 µM | > 100 µM | > 100 µM | > 100 µM | – | > 100 µM | > 100 µM | > 100 µM | > 100 µM | – | – | – | – | – | – | – | – | – | –
Fc1cccc(COc2ccc(Nc3ncnc4cc(-c5ccc[nH]5)sc34)cc2Cl)c1 | 3.75 µM | > 14.7 µM | 20.1 µM | > 25 µM | 2.64 µM | > 25 µM | > 7.14 µM | 11.7 µM | 5.54 µM | 17.5 µM | 0.323 µM | 1.46 µM | 2.41 µM | 7.96 µM | 0.482 µM | 9.38 µM | 1.48 µM | 0.406 µM | 0.156 µM | 5.47 µM
CC12CCC(=O)C=C1CCC1C2C(O)CC2(C)C(c3csc(N)n3)CCC12 (stereo not given) | > 100 µM | > 100 µM | > 100 µM | > 100 µM | > 100 µM | > 100 µM | > 100 µM | > 100 µM | > 100 µM | > 100 µM | – | – | – | – | – | – | – | – | – | –
O=C(CSC(=S)N1CCOCC1)Nc1nc2c(s1)CCCC2 | > 100 µM | > 100 µM | > 100 µM | > 100 µM | > 100 µM | > 100 µM | 70.2 µM | > 100 µM | > 100 µM | > 100 µM | – | – | – | – | – | – | – | – | – | –
O=C1/C(=C/c2ccc(O)cc2)COc2ccc(-c3ccccc3)cc21 | 32.1 µM | 22.8 µM | 46.1 µM | 24.5 µM | 11.9 µM | – | 16.4 µM | 20.8 µM | 7.54 µM | 33.9 µM | 13.4 µM | 5.49 µM | 21.4 µM | 10.1 µM | 2.98 µM | – | 2.93 µM | 6.12 µM | 2.28 µM | 10.6 µM
CC1C(=O)C(C)C(c2ccccc2)N(N=O)C1c1ccccc1 (stereo not given) | > 1000 µM | 352 µM | > 83.8 µM and 472 µM | > 834 µM | 640 µM | > 897 µM | > 601 µM | > 673 µM | > 684 µM | > 674 µM | > 1000 µM | 44 µM | 103 µM | – | – | – | > 385 µM | 216 µM | – | –
CCCCn1cnc2c(SC)ncnc21 | > 100 µM | > 100 µM | > 100 µM | > 100 µM | > 100 µM | > 100 µM | > 100 µM | > 100 µM | > 100 µM | > 100 µM | – | – | – | – | – | – | – | – | – | –
COc1ccc(NC(=O)c2cc(OC)c(OC)c(OC)c2)cc1 | > 100 µM | > 94.8 µM | > 100 µM | 94.4 µM | > 100 µM | > 100 µM | > 87.4 µM | > 100 µM | > 100 µM | > 71.9 µM | – | – | – | – | – | – | – | – | – | –
